Laboratory results taken from ChEMBL document CHEMBL4177739, “Design, synthesis and structure-activity relationship evaluation of novel LpxC inhibitors as Gram-negative antibacterial agents” (Bioorg Med Chem Lett, 2018).
Values after ≈ are worked out from the molar mass of the structure shown.

Legend:
[1] = biological target: T1, UDP-3-O-acyl-N-acetylglucosamine deacetylase (Escherichia coli K-12) (UniProt P0A725); assay: Inhibition of LpxC in Escherichia coli AB1157 assessed as reduction in microbial growth incubated for 22 hrs by MTT assay
T1 sequence (whole entry): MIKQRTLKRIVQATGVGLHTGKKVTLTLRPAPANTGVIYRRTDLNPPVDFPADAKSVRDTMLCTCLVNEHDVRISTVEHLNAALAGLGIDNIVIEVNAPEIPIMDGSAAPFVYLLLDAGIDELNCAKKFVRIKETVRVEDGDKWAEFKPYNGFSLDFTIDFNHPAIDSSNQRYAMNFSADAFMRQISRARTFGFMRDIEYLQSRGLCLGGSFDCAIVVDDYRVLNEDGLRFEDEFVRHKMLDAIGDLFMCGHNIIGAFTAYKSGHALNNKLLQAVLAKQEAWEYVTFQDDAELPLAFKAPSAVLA

[2] = Elimination half life in mouse liver microsomes at 0.1 umol/L in presence of NADPH by LC/MS/MS method; type: ADME, microsome; details: read-out: beta t1/2
[3] = Elimination half life in human liver microsomes at 0.1 umol/L in presence of NADPH by LC/MS/MS method; type: ADME, microsome; details: read-out: beta t1/2
[4] = biological target: T1, UDP-3-O-acyl-N-acetylglucosamine deacetylase (Escherichia coli K-12); assay: Inhibition of LpxC in Escherichia coli DH5[alpha] assessed as reduction in microbial growth incubated for 22 hrs by MTT assay
[5] = Intrinsic clearance in human liver microsomes assessed as per gram protein at 0.1 umol/L in presence of NADPH by LC/MS/MS method; type: ADME, microsome; details: 0.1 µM
[6] = Intrinsic clearance in mouse liver microsomes assessed as per gram protein at 0.1 umol/L in presence of NADPH by LC/MS/MS method; type: ADME, microsome; parameters: unit not given here; details: 0.1 µM
[7] = biological target: T2, UDP-3-O-acyl-N-acetylglucosamine deacetylase (Pseudomonas aeruginosa (strain ATCC 15692 / PAO1 / 1C / PRS 101 / LMG12228)) (UniProt P47205)
T2 sequence (whole entry): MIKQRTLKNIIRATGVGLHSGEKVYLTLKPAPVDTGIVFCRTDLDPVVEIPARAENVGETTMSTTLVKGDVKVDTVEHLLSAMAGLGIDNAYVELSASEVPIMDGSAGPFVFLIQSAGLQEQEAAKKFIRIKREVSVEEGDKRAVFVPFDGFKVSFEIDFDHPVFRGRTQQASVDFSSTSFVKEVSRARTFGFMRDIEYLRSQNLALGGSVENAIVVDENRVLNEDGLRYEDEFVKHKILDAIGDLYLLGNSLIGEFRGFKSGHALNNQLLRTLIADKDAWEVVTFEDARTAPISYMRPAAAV

[8] = tested on: Pseudomonas aeruginosa PA14; assay: Inhibition of LpxC in Pseudomonas aeruginosa PA14 assessed as reduction in microbial growth incubated for 22 hrs by MTT assay
[9] = Stability in human liver microsomes assessed as drug netabolism at 0.1 umol/L after 60 mins in presence of NADPH by LC/MS/MS method; type: ADME, microsome; details: 1 h, 0.1 µM

MIC [1] | half-life at 0.1 µM [2] | half-life at 0.1 µM [3] | MIC [4] | intrinsic clearance [5] | intrinsic clearance in liver microsomes [6] | MIC [7] | MIC [8] | Stability [9] | Compound
0.024 µg/mL | 3.17 h | 10.6 h | 0.024 µg/mL | 3 mL/min/g | 11 | 0.19 µg/mL (≈ 0.582 µM) | 0.19 µg/mL | – | C[C@@H](O)[C@H](NC(=O)c1ccc(C#CC#CC2CC2)cc1)C(=O)NO
> 256 µg/mL | – | – | > 256 µg/mL | – | – | > 256 µg/mL | > 256 µg/mL | – | C[C@@H](O)[C@H](NC(=O)[C@@H]1CN(c2ccc(-c3ccccc3)cc2)C(=O)O1)C(=O)NO
> 256 µg/mL | – | – | > 256 µg/mL | – | – | > 256 µg/mL | > 256 µg/mL | – | C[C@@H](O)[C@@H](CN(O)C=O)NC(=O)c1ccc(C#CC#CC2CC2)cc1
1.25 µg/mL | – | – | 2.5 µg/mL | – | – | 10 µg/mL (≈ 28.1 µM) | 10 µg/mL | – | COc1cc(C#CC#CC2CC2)ccc1C(=O)N[C@H](C(=O)NO)[C@@H](C)O
0.078 µg/mL | 3.88 h | 4.55 h | 0.156 µg/mL | 8 mL/min/g | 9 | 0.625 µg/mL (≈ 1.83 µM) | 0.625 µg/mL | – | C[C@@H](O)[C@H](NC(=O)c1ccc(C#CC#CC2CC2)cc1O)C(=O)NO
> 256 µg/mL | – | – | > 256 µg/mL | – | – | > 256 µg/mL | > 256 µg/mL | – | C[C@@H](O)[C@H](NC(=O)[C@H]1CN(c2ccc(C#Cc3ccccc3)cc2)C(=O)O1)C(=O)NO
1 µg/mL | – | – | 0.4 µg/mL | – | – | 0.31 µg/mL (≈ 0.892 µM) | 0.31 µg/mL | – | CC(CCc1ccc(-c2ccccc2)cc1)(C(=O)NO)S(C)(=O)=O (racemic)
0.4 µg/mL | 2.38 h | 44.4 h | 0.31 µg/mL | 1 mL/min/g | 15 | 0.63 µg/mL (≈ 1.83 µM) | 0.63 µg/mL | – | C[C@@H](O)[C@H](NC(=O)c1ccc(C#CC#CC2CC2)c(F)c1)C(=O)NO
1.25 µg/mL | – | – | 0.625 µg/mL | – | – | 20 µg/mL (≈ 61.1 µM) | 10 µg/mL | – | C[C@@H](O)[C@H](NC(=O)c1ccc(C#CC#CC2CC2)cn1)C(=O)NO
0.019 µg/mL | 2.25 h | – | 0.019 µg/mL | 0 mL/min/g | 16 | 0.31 µg/mL (≈ 0.867 µM) | 0.31 µg/mL | Stable | CC(C)(N)[C@H](NC(=O)c1ccc(C#CC#CC2CC2)c(F)c1)C(=O)NO
> 256 µg/mL | – | – | > 256 µg/mL | – | – | > 256 µg/mL | > 256 µg/mL | – | CC(CCc1ccc(-c2ccccc2)cc1)(C(=O)Nc1ccccc1N)S(C)(=O)=O (stereo not given)
0.078 µg/mL | 4 h | – | 0.04 µg/mL | 0 mL/min/g | 9 | 0.625 µg/mL (≈ 1.75 µM) | 0.31 µg/mL | Stable | CC(C)(N)[C@H](NC(=O)c1ccc(C#CC#CC2CC2)cc1F)C(=O)NO
0.31 µg/mL | 1.42 h | 3.33 h | 0.31 µg/mL | 11 mL/min/g | 25 | 2.5 µg/mL (≈ 7.26 µM) | 1.25 µg/mL | – | C[C@@H](O)[C@H](NC(=O)c1ccc(C#CC#CC2CC2)cc1F)C(=O)NO
0.156 µg/mL | – | – | 0.156 µg/mL | – | – | – | – | – | C[C@@H](O)[C@H](NC(=O)c1ccc(C#Cc2ccc(CN3CCOCC3)cc2)cc1)C(=O)NO
> 256 µg/mL | – | – | > 256 µg/mL | – | – | > 256 µg/mL | > 256 µg/mL | – | C[C@@H](O)[C@H](NC(=O)[C@H]1CN(c2ccc(-c3ccccc3)cc2)C(=O)O1)C(=O)NO
0.156 µg/mL | – | – | 0.156 µg/mL | – | – | 5 µg/mL (≈ 14.7 µM) | 5 µg/mL | – | Cc1cc(C#CC#CC2CC2)ccc1C(=O)N[C@H](C(=O)NO)[C@@H](C)O
40 µg/mL | – | – | 20 µg/mL | – | – | 100 µg/mL (≈ 276 µM) | 50 µg/mL | – | C[C@@H](O)[C@H](NS(=O)(=O)c1ccc(C#CC#CC2CC2)cc1)C(=O)NO
0.078 µg/mL | 1.58 h | – | 0.078 µg/mL | 0 mL/min/g | 22 | 0.625 µg/mL (≈ 1.76 µM) | 0.625 µg/mL | Stable | CC(C)(N)[C@H](NC(=O)c1ccc(C#CC#CC2CC2)cc1O)C(=O)NO
0.192 µg/mL | – | – | 0.048 µg/mL | – | – | 6.25 µg/mL (≈ 17.3 µM) | 6.25 µg/mL | – | C[C@@H](O)[C@H](NC(=O)c1ccc(C#CC#CC2CC2)cc1Cl)C(=O)NO
0.156 µg/mL | – | – | 0.31 µg/mL | – | – | 10 µg/mL (≈ 25.5 µM) | 10 µg/mL | – | C[C@@H](O)[C@H](NC(=O)c1ccc(C#CC#CC2CC2)cc1OC(F)F)C(=O)NO
0.039 µg/mL | 3.43 h | 56.9 h | 0.012 µg/mL | 1 mL/min/g | 10 | 0.156 µg/mL (≈ 0.46 µM) | 0.078 µg/mL | – | CC(C)(N)[C@H](NC(=O)c1ccc(C#CC#CC2CC2)cc1)C(=O)NO
0.6 µg/mL | – | – | 0.4 µg/mL | – | – | 5 µg/mL (≈ 13.5 µM) | 5 µg/mL | – | C[C@@H](O)[C@H](NC(=O)c1ccc(C#CC#CC2CC2)cc1[N+](=O)[O-])C(=O)NO
> 256 µg/mL | – | – | > 256 µg/mL | – | – | > 256 µg/mL | > 256 µg/mL | – | C[C@@H](O)[C@H](NC(=O)[C@@H]1CN(c2ccc(C#Cc3ccccc3)cc2)C(=O)O1)C(=O)NO
80 µg/mL | – | – | 40 µg/mL | – | – | 40 µg/mL (≈ 114 µM) | 40 µg/mL | – | C[C@@H](O)[C@H](NC(=O)c1ccc(C#CC#CC2CC2)cc1C#N)C(=O)NO
0.04 µg/mL | – | – | 0.04 µg/mL | – | – | 0.625 µg/mL (≈ 1.83 µM) | 0.625 µg/mL | – | C[C@@H](O)[C@H](NC(=O)c1ccc(C#CC#CC2CC2)cc1N)C(=O)NO
